From patent US20250382344A1, “Soluble GLP1/GIP/NPY2 Receptor Triple Agonists” (Boehringer Ingelheim International GmH, priority 2024, published 2025)
Where two headings read alike, the source gives them in different places.

What was measured:
[1] = target: T1, hGLP1R (Homo sapiens, UniProt P43220); assay: hGLP1R CreLuc assay in 0.5% and 100% plasma (HEK-293 CRE-luciferase reporter cells); type: cell-based; settings: HEK-293 reporter cells
T1 construct: expressed in transfected cells; host or cells: HEK-293 CRE-luciferase reporter cells
T1 sequence (P43220 24-463): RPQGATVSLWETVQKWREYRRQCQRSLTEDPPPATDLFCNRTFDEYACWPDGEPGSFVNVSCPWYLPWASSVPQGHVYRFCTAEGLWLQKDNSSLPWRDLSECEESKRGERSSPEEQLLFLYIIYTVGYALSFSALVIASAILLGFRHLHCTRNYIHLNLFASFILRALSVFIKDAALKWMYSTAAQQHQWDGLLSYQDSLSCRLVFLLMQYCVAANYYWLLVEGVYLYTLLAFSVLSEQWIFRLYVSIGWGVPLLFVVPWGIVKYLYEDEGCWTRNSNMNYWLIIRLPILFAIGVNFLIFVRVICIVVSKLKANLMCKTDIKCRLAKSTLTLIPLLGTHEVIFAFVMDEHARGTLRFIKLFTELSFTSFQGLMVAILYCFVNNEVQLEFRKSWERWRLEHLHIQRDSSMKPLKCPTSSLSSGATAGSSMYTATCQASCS

[2] = target: T2, hGIPR (Homo sapiens, UniProt P48546); assay: hGIPR CreLuc assay in 0.5% and 100% plasma (CHO CRE-luciferase reporter cells); type: cell-based
T2 construct: expressed in transfected cells; host or cells: CHO CRE-luciferase reporter cells
T2 sequence (P48546 22-466): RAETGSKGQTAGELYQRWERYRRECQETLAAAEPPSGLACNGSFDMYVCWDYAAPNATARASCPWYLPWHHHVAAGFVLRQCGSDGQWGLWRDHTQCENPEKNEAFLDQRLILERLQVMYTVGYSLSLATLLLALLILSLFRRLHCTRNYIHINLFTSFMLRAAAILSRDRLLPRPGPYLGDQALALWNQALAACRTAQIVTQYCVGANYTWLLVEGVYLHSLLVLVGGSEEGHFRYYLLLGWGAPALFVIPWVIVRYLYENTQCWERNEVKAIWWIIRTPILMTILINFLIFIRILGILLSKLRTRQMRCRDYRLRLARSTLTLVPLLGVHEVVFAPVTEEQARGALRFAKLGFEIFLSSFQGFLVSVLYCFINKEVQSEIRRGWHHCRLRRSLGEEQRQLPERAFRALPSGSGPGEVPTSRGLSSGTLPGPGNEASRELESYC

[3] = target: T3, hNPY2R (Homo sapiens, UniProt P49146); assay: hNPY2R CreLuc assay in 0.5% and 100% plasma (HEK-293 CRE-luciferase reporter cells); type: cell-based; settings: HEK-293 reporter cells
T3 construct: expressed in transfected cells; host or cells: HEK-293 CRE-luciferase reporter cells
T3 sequence (P49146 1-381): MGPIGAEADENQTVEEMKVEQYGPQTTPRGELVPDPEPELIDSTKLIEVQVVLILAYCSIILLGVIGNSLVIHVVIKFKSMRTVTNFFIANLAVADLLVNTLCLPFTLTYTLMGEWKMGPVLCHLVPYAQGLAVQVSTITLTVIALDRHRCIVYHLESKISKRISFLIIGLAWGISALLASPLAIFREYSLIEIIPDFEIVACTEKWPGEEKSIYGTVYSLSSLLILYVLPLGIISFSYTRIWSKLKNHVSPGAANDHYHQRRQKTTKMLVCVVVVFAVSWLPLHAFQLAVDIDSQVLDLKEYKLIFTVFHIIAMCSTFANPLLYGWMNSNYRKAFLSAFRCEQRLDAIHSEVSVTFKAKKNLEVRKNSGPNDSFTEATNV

[4] = Solubility in 0.1 M phosphate buffer at pH 7; type: physicochemical; settings: 0.1 M phosphate buffer at pH 7, 10 mg/mL final peptide concentration, shaking 2 hours at room temperature, peptides as TFA-salts; measured sample pH 6.5-7.0
[5] = 0.5% human plasma, read-out: hGLP1R 0.5% hP
[6] = 0.5% human plasma, read-out: hGIPR 0.5% hP
[7] = 100% human plasma, read-out: hGIPR 100% hP
[8] = 100% human plasma, read-out: hNPY2R 100% hP
[9] = 100% human plasma, read-out: hGLP1R 100% hP
[10] = 0.5% human plasma, read-out: hNPY2R 0.5% hP

| EC50 [1, 5] [nM] | EC50 [2, 6] [nM] | EC50 [2, 7] [nM] | EC50 [3, 8] [nM] | solubility at 2 h [4] [µg/mL] | EC50 [1, 9] [nM] | EC50 [3, 10] [nM] | Compound |
| --- | --- | --- | --- | --- | --- | --- | --- |
| 0.3 | 0.3 | 14.2 | 476 | 4900 | – | – | CC[C@H](C)[C@H](NC(=O)[C@H](CC(C)C)NC(=O)[C@H](Cc1c[nH]cn1)NC(=O)[C@H](CCCNC(=N)N)NC(=O)[C@@H](NC(=O)[C@H](Cc1ccccc1)NC(=O)[C@H](CCC(=O)O)NC(=O)C(C)(C)NC(=O)[C@H](CCC(N)=O)NC(=O)[C@H](C)NC(=O)[C@H](CCC(N)=O)NC(=O)[C@H](CCCCN)NC(=O)[C@H](CCC(=O)O)NC(=O)[C@H](CC(C)C)NC(=O)C(C)(C)NC(=O)[C@@H](NC(=O)[C@H](CO)NC(=O)[C@H](Cc1ccc(O)cc1)NC(=O)[C@H](CC(=O)O)NC(=O)[C@H](CO)NC(=O)[C@@H](NC(=O)[C@H](Cc1ccccc1)NC(=O)[C@@H](NC(=O)CNC(=O)[C@H](CCC(=O)O)NC(=O)C(C)(C)NC(=O)[C@@H](N)Cc1ccc(O)cc1)[C@@H](C)O)[C@@H](C)O)[C@@H](C)CC)C(C)C)C(=O)N[C@@H](CC(N)=O)C(=O)N[C@@H](CCCCNC(=O)COCCOCCNC(=O)CC[C@H](NC(=O)CC[C@H](NC(=O)CC[C@H](NC(=O)CC[C@H](NC(=O)CC[C@H](NC(=O)CCCCCCCCCCCCCCCCC(=O)O)C(=O)O)C(=O)O)C(=O)O)C(=O)O)C(=O)O)C(=O)NC(C)(C)C(=O)N[C@H](C(=O)N[C@@H](CCCNC(=N)N)C(=O)N[C@@H](CCC(N)=O)C(=O)N[C@@H](CCCNC(=N)N)C(=O)N[C@@H](Cc1ccc(O)cc1)C(N)=O)[C@@H](C)O [Compound 8, Y-Aib-E-G-T-F-T-S-D-Y-S-I-Aib-L-E-K-Q-A-Q-Aib-E-F-V-R-H-L-I-N-K(1,3)-Aib-T-R-Q-R-Y-NH2.C18DA-gGlu-gGlu-gGlu-gGlu-gGlu-OEG(1,2)] |
| 0.3 | 0.1 | 6.2 | 387 | 4800 | 0.9 | 16.8 | CC[C@H](C)[C@H](NC(=O)[C@H](CC(C)C)NC(=O)[C@H](Cc1c[nH]cn1)NC(=O)[C@H](CCCNC(=N)N)NC(=O)[C@@H](NC(=O)[C@H](Cc1ccccc1)NC(=O)[C@H](CCC(=O)O)NC(=O)C(C)(C)NC(=O)[C@H](CCC(N)=O)NC(=O)[C@H](C)NC(=O)[C@H](CCC(N)=O)NC(=O)[C@H](CCCCN)NC(=O)[C@H](CCC(=O)O)NC(=O)[C@H](CC(C)C)NC(=O)C(C)(C)NC(=O)[C@@H](NC(=O)[C@H](CO)NC(=O)[C@H](Cc1ccc(O)cc1)NC(=O)[C@H](CC(=O)O)NC(=O)[C@H](CO)NC(=O)[C@@H](NC(=O)[C@H](Cc1ccccc1)NC(=O)[C@@H](NC(=O)CNC(=O)[C@H](CCC(=O)O)NC(=O)C(C)(C)NC(=O)[C@@H](N)Cc1ccc(O)cc1)[C@@H](C)O)[C@@H](C)O)[C@@H](C)CC)C(C)C)C(=O)N[C@@H](CC(N)=O)C(=O)N[C@@H](CCCCNC(=O)CCCCCNC(=O)CC[C@H](NC(=O)CC[C@H](NC(=O)CC[C@H](NC(=O)CC[C@H](NC(=O)CC[C@H](NC(=O)CCCCCCCCCCCCCCCCC(=O)O)C(=O)O)C(=O)O)C(=O)O)C(=O)O)C(=O)O)C(=O)NC(C)(C)C(=O)N[C@H](C(=O)N[C@@H](CCCNC(=N)N)C(=O)N[C@@H](CCC(N)=O)C(=O)N[C@@H](CCCNC(=N)N)C(=O)N[C@@H](Cc1ccc(O)cc1)C(N)=O)[C@@H](C)O [Compound 14, Y-Aib-E-G-T-F-T-S-D-Y-S-I-Aib-L-E-K-Q-A-Q-Aib-E-F-V-R-H-L-I-N-K(1,3)-Aib-T-R-Q-R-Y-NH2.C18DA-gGlu-gGlu-gGlu-gGlu-gGlu-AHX(1,2)] |
| 5.8 | – | – | 41.3 | 9000 | – | – | CC[C@H](C)[C@H](NC(=O)[C@H](CC(C)C)NC(=O)[C@H](Cc1c[nH]cn1)NC(=O)[C@H](CCCNC(=N)N)NC(=O)[C@H](CC(C)C)NC(=O)[C@H](Cc1ccccc1)NC(=O)[C@H](C)NC(=O)C(C)(C)NC(=O)[C@H](CCC(N)=O)NC(=O)[C@H](C)NC(=O)[C@H](CCC(N)=O)NC(=O)[C@H](CCCCN)NC(=O)[C@H](CCC(=O)O)NC(=O)[C@H](CC(C)C)NC(=O)C(C)(C)NC(=O)[C@@H](NC(=O)[C@H](CO)NC(=O)[C@H](Cc1ccc(O)cc1)NC(=O)[C@H](CC(=O)O)NC(=O)[C@H](CO)NC(=O)[C@@H](NC(=O)[C@H](Cc1ccccc1)NC(=O)[C@@H](NC(=O)CNC(=O)[C@H](CCC(=O)O)NC(=O)C(C)(C)NC(=O)[C@@H](N)Cc1ccc(O)cc1)[C@@H](C)O)[C@@H](C)O)[C@@H](C)CC)C(=O)N[C@@H](CC(N)=O)C(=O)N[C@@H](CCCCNC(=O)[C@@H](N)CCCCNC(=O)CC[C@H](NC(=O)CC[C@H](NC(=O)CC[C@H](NC(=O)CC[C@H](NC(=O)CC[C@H](NC(=O)CC[C@H](NC(=O)CCCCCCCCCCCCCCCCC(=O)O)C(=O)O)C(=O)O)C(=O)O)C(=O)O)C(=O)O)C(=O)O)C(=O)NC(C)(C)C(=O)N[C@H](C(=O)N[C@@H](CCCNC(=N)N)C(=O)N[C@@H](CCC(N)=O)C(=O)N[C@@H](CCCNC(=N)N)C(=O)N[C@@H](Cc1ccc(O)cc1)C(N)=O)[C@@H](C)O [Compound 37, Y-Aib-E-G-T-F-T-S-D-Y-S-I-Aib-L-E-K-Q-A-Q-Aib-A-F-L-R-H-L-I-N-K(1,3)-Aib-T-R-Q-R-Y-NH2.C18DA-gGlu-gGlu-gGlu-gGlu-gGlu-gGlu-eLys(1,2)] |
| – | – | – | 16.2 | 9400 | 14.5 | – | CC[C@H](C)[C@H](NC(=O)[C@H](CC(C)C)NC(=O)[C@H](Cc1c[nH]cn1)NC(=O)[C@H](CCCNC(=N)N)NC(=O)[C@@H](NC(=O)[C@H](Cc1ccccc1)NC(=O)[C@H](C)NC(=O)C(C)(C)NC(=O)[C@H](CCC(N)=O)NC(=O)[C@H](C)NC(=O)[C@H](CCC(N)=O)NC(=O)[C@H](CCCCN)NC(=O)[C@H](CCC(=O)O)NC(=O)[C@H](CC(C)C)NC(=O)C(C)(C)NC(=O)[C@@H](NC(=O)[C@H](CO)NC(=O)[C@H](Cc1ccc(O)cc1)NC(=O)[C@H](CC(=O)O)NC(=O)[C@H](CO)NC(=O)[C@@H](NC(=O)[C@H](Cc1ccccc1)NC(=O)[C@H](C)NC(=O)CNC(=O)[C@H](CCC(=O)O)NC(=O)C(C)(C)NC(=O)[C@@H](N)Cc1ccc(O)cc1)[C@@H](C)O)[C@@H](C)CC)C(C)C)C(=O)N[C@@H](CC(N)=O)C(=O)N[C@@H](CCCCNC(=O)[C@@H](N)CCCCNC(=O)CC[C@H](NC(=O)CC[C@H](NC(=O)CC[C@H](NC(=O)CC[C@H](NC(=O)CC[C@H](NC(=O)CC[C@H](NC(=O)CCCCCCCCCCCCCCCCC(=O)O)C(=O)O)C(=O)O)C(=O)O)C(=O)O)C(=O)O)C(=O)O)C(=O)NC(C)(C)C(=O)N[C@H](C(=O)N[C@@H](CCCNC(=N)N)C(=O)N[C@@H](CCC(N)=O)C(=O)N[C@@H](CCCNC(=N)N)C(=O)N[C@@H](Cc1ccc(O)cc1)C(N)=O)[C@@H](C)O [Compound 85, Y-Aib-E-G-A-F-T-S-D-Y-S-I-Aib-L-E-K-Q-A-Q-Aib-A-F-V-R-H-L-I-N-K(1,3)-Aib-T-R-Q-R-Y-NH2.C18DA-gGlu-gGlu-gGlu-gGlu-gGlu-gGlu-eLys(1,2)] |
| 2 | – | – | – | 9400 | – | 17.5 | CC[C@H](C)[C@H](NC(=O)[C@H](CC(C)C)NC(=O)[C@H](Cc1c[nH]cn1)NC(=O)[C@H](CCCNC(=N)N)NC(=O)[C@@H](NC(=O)[C@H](Cc1ccccc1)NC(=O)[C@H](C)NC(=O)C(C)(C)NC(=O)[C@H](CCC(=O)O)NC(=O)[C@H](C)NC(=O)[C@H](CCC(N)=O)NC(=O)[C@H](CCCCN)NC(=O)[C@H](CCC(=O)O)NC(=O)[C@H](CC(C)C)NC(=O)C(C)(C)NC(=O)[C@@H](NC(=O)[C@H](CO)NC(=O)[C@H](Cc1ccc(O)cc1)NC(=O)[C@H](CC(=O)O)NC(=O)[C@H](CO)NC(=O)[C@@H](NC(=O)[C@H](Cc1ccccc1)NC(=O)[C@@H](NC(=O)CNC(=O)[C@H](CCC(=O)O)NC(=O)C(C)(C)NC(=O)[C@@H](N)Cc1ccc(O)cc1)[C@@H](C)O)[C@@H](C)O)[C@@H](C)CC)C(C)C)C(=O)N[C@@H](CC(N)=O)C(=O)N[C@@H](CCCCNC(=O)[C@@H](N)CCCCNC(=O)CC[C@H](NC(=O)CC[C@H](NC(=O)CC[C@H](NC(=O)CC[C@H](NC(=O)CC[C@H](NC(=O)CC[C@H](NC(=O)CCCCCCCCCCCCCCCCCCC(=O)O)C(=O)O)C(=O)O)C(=O)O)C(=O)O)C(=O)O)C(=O)O)C(=O)NC(C)(C)C(=O)N[C@H](C(=O)N[C@@H](CCCNC(=N)N)C(=O)N[C@@H](CCC(N)=O)C(=O)N[C@@H](CCCNC(=N)N)C(=O)N[C@@H](Cc1ccc(O)cc1)C(N)=O)[C@@H](C)O [Compound 104, Y-Aib-E-G-T-F-T-S-D-Y-S-I-Aib-L-E-K-Q-A-E-Aib-A-F-V-R-H-L-I-N-K(1,3)-Aib-T-R-Q-R-Y-NH2.C20DA-gGlu-gGlu-gGlu-gGlu-gGlu-gGlu-eLys(1,2)] |
